Consider 21 compounds from paper PMC10252614 (International Journal of Molecular Sciences, 2023).

What is called IC50 is the midpoint of a concentration-inhibition curve. A higher IC50 goes with weaker potency.

T3 sequence (P22303 32-614): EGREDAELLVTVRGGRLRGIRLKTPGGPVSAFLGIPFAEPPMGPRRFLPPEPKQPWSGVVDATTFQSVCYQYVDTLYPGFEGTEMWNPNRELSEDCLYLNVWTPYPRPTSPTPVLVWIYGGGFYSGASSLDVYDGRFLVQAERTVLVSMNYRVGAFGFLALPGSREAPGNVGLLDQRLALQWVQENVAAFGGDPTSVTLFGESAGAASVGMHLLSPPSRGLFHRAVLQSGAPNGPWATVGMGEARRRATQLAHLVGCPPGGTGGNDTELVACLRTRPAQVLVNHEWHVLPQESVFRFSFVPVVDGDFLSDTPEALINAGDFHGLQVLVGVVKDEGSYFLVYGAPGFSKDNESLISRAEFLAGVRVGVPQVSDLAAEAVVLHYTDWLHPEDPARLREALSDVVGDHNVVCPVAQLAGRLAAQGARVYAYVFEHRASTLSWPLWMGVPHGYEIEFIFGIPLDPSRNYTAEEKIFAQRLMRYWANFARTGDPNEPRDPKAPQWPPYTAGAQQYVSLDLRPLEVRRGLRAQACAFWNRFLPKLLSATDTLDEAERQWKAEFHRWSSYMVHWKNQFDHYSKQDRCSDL

Test system in the first series: not listed separately
Nature of the series: in vitro. As to conditions: human.
With `Nc1c2c(nc3ccccc13)CCCC2` [THA, tacrine, reference compound], the IC50 at 24 h came to 122.11 ± 0.02 µM.

The target of a further series is T1, GluN1/GluN2B receptor (Homo sapiens, UniProt Q05586+Q13224).
T1 construct: expressed in transfected cells; host or cells: HEK293
T1 sequence (Q13224 27-1484, other chains not shown): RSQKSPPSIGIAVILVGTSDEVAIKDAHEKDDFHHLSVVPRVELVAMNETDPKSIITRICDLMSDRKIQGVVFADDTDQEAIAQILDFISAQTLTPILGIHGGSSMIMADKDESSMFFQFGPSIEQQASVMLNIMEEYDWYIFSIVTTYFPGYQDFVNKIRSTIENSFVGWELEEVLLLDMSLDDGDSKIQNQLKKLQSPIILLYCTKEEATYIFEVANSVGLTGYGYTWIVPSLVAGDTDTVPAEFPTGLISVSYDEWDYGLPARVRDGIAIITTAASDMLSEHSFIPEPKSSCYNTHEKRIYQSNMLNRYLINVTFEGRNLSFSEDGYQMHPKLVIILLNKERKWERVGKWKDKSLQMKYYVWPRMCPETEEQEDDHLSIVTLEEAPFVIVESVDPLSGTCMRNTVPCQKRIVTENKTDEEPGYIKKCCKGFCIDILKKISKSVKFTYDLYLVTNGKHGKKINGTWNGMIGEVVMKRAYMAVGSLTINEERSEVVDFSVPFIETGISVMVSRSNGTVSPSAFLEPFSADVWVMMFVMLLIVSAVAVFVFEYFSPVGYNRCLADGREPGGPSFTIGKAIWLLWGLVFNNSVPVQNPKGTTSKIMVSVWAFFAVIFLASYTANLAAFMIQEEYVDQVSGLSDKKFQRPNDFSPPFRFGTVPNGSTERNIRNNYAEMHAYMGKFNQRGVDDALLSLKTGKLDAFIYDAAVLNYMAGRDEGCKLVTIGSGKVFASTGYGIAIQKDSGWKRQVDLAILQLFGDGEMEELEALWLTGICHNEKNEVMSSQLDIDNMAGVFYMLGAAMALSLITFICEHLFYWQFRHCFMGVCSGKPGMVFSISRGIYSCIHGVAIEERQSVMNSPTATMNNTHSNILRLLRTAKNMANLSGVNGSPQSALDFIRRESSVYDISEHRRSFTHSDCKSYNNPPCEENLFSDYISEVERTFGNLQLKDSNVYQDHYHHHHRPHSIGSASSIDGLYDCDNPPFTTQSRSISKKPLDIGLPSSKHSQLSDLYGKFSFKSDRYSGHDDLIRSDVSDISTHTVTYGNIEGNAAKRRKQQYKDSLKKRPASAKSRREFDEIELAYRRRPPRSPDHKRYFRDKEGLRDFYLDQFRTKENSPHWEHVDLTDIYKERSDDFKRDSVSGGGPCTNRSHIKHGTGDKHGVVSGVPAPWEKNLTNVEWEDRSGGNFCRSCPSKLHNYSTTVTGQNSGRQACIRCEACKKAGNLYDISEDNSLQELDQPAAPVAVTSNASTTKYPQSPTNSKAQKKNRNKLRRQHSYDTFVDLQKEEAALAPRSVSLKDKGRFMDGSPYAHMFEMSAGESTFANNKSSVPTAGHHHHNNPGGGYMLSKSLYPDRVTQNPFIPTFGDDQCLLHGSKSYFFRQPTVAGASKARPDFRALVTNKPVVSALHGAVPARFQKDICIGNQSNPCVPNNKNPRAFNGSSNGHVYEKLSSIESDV
Description: whole-cell patch-clamp on HEK293 cells expressing GluN1/GluN2B NMDAR. Format: cell-based. As to conditions: HEK293, 10 µM, −60 mV, ± SEM (n = 5–6), 100% = full inhibition; read-out: Relative inhibition (RI) of GluN1/GluN2B NMDAR. The protocol: We tested the derivatives by the whole-cell patch-clamp method at a concentration of 10 μM under steady-state conditions in the presence of the saturating concentrations of NMDAR (co-)agonists (L-glutamate and glycine). […] Whole-cell patch-clamp recordings were performed using an Axopatch 200B amplifier (Molecular Devices, LLC., San Jose, CA, USA) at a holding membrane potential of −60 mV. HEK293 cells were co-transfected with DNA vectors encoding human versions of the GluN1-4a (GluN1) and GluN2B subunits and green fluorescent protein (GFP) in a 1:1:1 ratio using 0.9 μL PolyMag reagent (OZ Biosciences SAS, Marseille, France) in 50 μL Opti-MEM I [56, 57]. After 15 min on a magnetic plate, HEK293 cells were trypsinized and resuspended in Opti-MEM I medium containing 1% FBS, 2 mM MgCl2 and 3 mM kynurenic acid (to reduce cell death caused by activation of NMDARs). Electrophysiological measurements were performed 24–48 h after completion of transfection at room temperature. The extracellular recording solution (ECS) contained (in mM): 160 NaCl, 2.5 KCl, 10 HEPES, 10 D-glucose, 0.2 EDTA, and 0.7 CaCl2 (pH 7.3 with NaOH). […] A microprocessor-controlled rapid perfusion system with a time constant for solution exchange around the recorded cell of ~20 ms was used. Currents were low-pass filtered at 2 kHz using an eight-pole Bessel filter, digitized at 5 kHz, and recorded using the pCLAMP 10 program (Molecular Devices, LLC., San Jose, CA, USA). The co-agonist glycine (100 µM) was applied throughout the recording, and the agonist L-glutamate (1 mM) was used to elicit responses of GluN1/GluN2B receptors.
Regarding `COc1ccc2nc3c(c(N)c2c1)CCCC3` [7-MEOTA, reference compound], the inhibition at 10 µM was about 60%.

The target of a further series is T2, human BChE (hBChE) (Homo sapiens, UniProt P06276).
T2 construct: made in house
T2 sequence (P06276 29-602): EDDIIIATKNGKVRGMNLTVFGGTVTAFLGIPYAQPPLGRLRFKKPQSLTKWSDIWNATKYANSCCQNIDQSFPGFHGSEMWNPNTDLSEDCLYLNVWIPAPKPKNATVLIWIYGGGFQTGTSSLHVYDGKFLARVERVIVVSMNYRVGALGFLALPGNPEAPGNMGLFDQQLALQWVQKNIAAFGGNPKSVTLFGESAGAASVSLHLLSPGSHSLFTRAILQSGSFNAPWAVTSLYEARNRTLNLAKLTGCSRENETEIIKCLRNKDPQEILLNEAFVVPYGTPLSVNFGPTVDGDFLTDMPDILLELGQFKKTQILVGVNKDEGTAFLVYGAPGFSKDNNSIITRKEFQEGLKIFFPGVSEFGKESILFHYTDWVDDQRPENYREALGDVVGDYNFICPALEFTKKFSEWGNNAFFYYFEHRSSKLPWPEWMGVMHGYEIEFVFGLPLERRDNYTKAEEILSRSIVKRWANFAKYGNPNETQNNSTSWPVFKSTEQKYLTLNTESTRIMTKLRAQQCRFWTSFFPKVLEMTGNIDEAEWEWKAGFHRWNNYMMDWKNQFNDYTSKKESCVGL
Nature of the series: hBChE inhibition, modified Ellman's method. As to conditions: 10^-6 M. Format: biochemical. The protocol:
(§1) N-Methylpropargylamine-quinazolines were tested for their inhibitory potency against human AChE (hAChE) and human BChE (hBChE) enzymes using the modified spectrophotometric method of Ellman et al..
(§2) The human recombinant BChE and AChE were prepared at the Department of Toxicology and Military Pharmacy (Faculty of Military Health Sciences, Hradec Kralove, Czech Republic). 5,5′-dithiobis(2-nitrobenzoic acid) (Ellman’s reagent, DTNB), phosphate buffer (PB, pH 7.4), acetylthiocholine (ATC) and butyrylthiocholine (BTC), were purchased from Sigma-Aldrich, Prague, Czech Republic. For measuring purposes, polystyrene Nunc 96-well microplates with a flat-bottom shape (ThermoFisher Scientific, Waltham, MA, USA) were utilized. All the assays were carried out in 0.1 M KH2PO4/K2HPO4 buffer, pH 7.4. Enzyme solutions were prepared at 2.0 units/mL in 2 mL aliquots. The assay medium consisted of a 0.1 M phosphate buffer (pH 7.4), 0.01 M DTNB, the enzyme, and 0.01 M substrate (ATC/BTC iodide solution). Concentration 1 µM was tested and the % of inhibition was calculated. Tested compounds were pre-incubated for 5 min. The reaction was started by immediate addition of 20 μL of the substrate. […] Each concentration was assayed in triplicate. Software GraphPad Prism 5 (San Diego, CA, USA) was used for the statistical data evaluation.
(In general: Ellman's reagent forms a yellow product with free thiols.)
Take `COc1ccc2nc3c(c(N)c2c1)CCCC3` [7-MEOTA, reference compound]: the inhibition at 1 µM turned out to be 18%. `C#CCN(C)c1nc(N)c2ccccc2n1` [I-6a, N2-methyl-N2-(prop-2-yn-1-yl)quinazoline-2,4-diamine]: the inhibition at 1 µM came out at 0%. On the same count and under the same terms, as for `C#CCN(C)c1nc(NC)c2ccccc2n1` [I-6b, N2,N4-dimethyl-N2-(prop-2-yn-1-yl)quinazoline-2,4-diamine], the figure is 3%. The same measure, in the same setting: to `C#CCN(C)c1nc(NCC)c2ccccc2n1` [I-6c, N4-ethyl-N2-methyl-N2-(prop-2-yn-1-yl)quinazoline-2,4-diamine] belongs 0%; to `C#CCN(C)c1nc(NC(C)C)c2ccccc2n1` [I-6d, N2-methyl-N2-(prop-2-yn-1-yl)-N4-(propan-2-yl)quinazoline-2,4-diamine], 1%. Same read-out and setting: to `C#CCN(C)c1nc(NCCOC)c2ccccc2n1` [I-6f, N4-(2-methoxyethyl)-N2-methyl-N2-(prop-2-yn-1-yl)quinazoline-2,4-diamine] belongs 1%; to `C#CCN(C)c1nc(NC2CC2)c2ccccc2n1` [I-6g, N4-cyclopropyl-N2-methyl-N2-(prop-2-yn-1-yl)quinazoline-2,4-diamine], 2%.

The compound `C#CCN(C)c1nc(N)c2ccc(Cl)cc2n1` [II-6a, 7-chloro-N2-methyl-N2-(prop-2-yn-1-yl)quinazoline-2,4-diamine] gave an inhibition at 1 µM of 2%. Still for that read-out and setting: as for `C#CCN(C)c1nc(NC)c2ccc(Cl)cc2n1` [II-6b, 7-chloro-N2,N4-dimethyl-N2-(prop-2-yn-1-yl)quinazoline-2,4-diamine], the figure is 2%; as for `C#CCN(C)c1nc(NCC)c2ccc(Cl)cc2n1` [II-6c, 7-chloro-N4-ethyl-N2-methyl-N2-(prop-2-yn-1-yl)quinazoline-2,4-diamine], 0%; as for `C#CCN(C)c1nc(NC(C)C)c2ccc(Cl)cc2n1` [II-6d, 7-chloro-N2-methyl-N2-(prop-2-yn-1-yl)-N4-(propan-2-yl)quinazoline-2,4-diamine], 3%. The same measure, in the same setting: to `C#CCN(C)c1nc(NCCOC)c2ccc(Cl)cc2n1` [II-6f, 7-chloro-N4-(2-methoxyethyl)-N2-methyl-N2-(prop-2-yn-1-yl)quinazoline-2,4-diamine] belongs 2%; to `C#CCN(C)c1nc(NC2CC2)c2ccc(Cl)cc2n1` [II-6g, 7-chloro-N4-cyclopropyl-N2-methyl-N2-(prop-2-yn-1-yl)quinazoline-2,4-diamine], 0%; to `C#CCN(C)c1nc(NC)c2cc(OC)ccc2n1` [III-6b, 6-methoxy-N2,N4-dimethyl-N2-(prop-2-yn-1-yl)quinazoline-2,4-diamine], 1%. Still for that read-out and setting: to `C#CCN(C)c1nc(NCC)c2cc(OC)ccc2n1` [III-6c, N4-ethyl-6-methoxy-N2-methyl-N2-(prop-2-yn-1-yl)quinazoline-2,4-diamine] belongs 2%. `C#CCN(C)c1nc(NC(C)C)c2cc(OC)ccc2n1` [III-6d, 6-methoxy-N2-methyl-N2-(prop-2-yn-1-yl)-N4-(propan-2-yl)quinazoline-2,4-diamine] showed an inhibition at 1 µM of 2%. Same read-out and setting: as for `C#CCN(C)c1nc(NCCCC)c2cc(OC)ccc2n1` [III-6e, N4-butyl-6-methoxy-N2-methyl-N2-(prop-2-yn-1-yl)quinazoline-2,4-diamine], the figure is 1%; as for `C#CCN(C)c1nc(NCCOC)c2cc(OC)ccc2n1` [III-6f, 6-methoxy-N4-(2-methoxyethyl)-N2-methyl-N2-(prop-2-yn-1-yl)quinazoline-2,4-diamine], 1%; as for `C#CCN(C)c1nc(NC2CC2)c2cc(OC)ccc2n1` [III-6g, N4-cyclopropyl-6-methoxy-N2-methyl-N2-(prop-2-yn-1-yl)quinazoline-2,4-diamine], 0%. On the same count and under the same terms, as for `C#CCN(C)c1nc(NC2CCCCC2)c2cc(OC)ccc2n1` [III-6h, N4-cyclohexyl-6-methoxy-N2-methyl-N2-(prop-2-yn-1-yl)quinazoline-2,4-diamine], the figure is 2%.

The next series concerns the target T3, human AChE (hAChE) (Homo sapiens, UniProt P22303).
T3 construct: made in house
Nature of the series: hAChE inhibition, modified Ellman's method. The series is classed as biochemical. As to conditions: read-out: % of AChE inhibition. As to the method:
as §1, §2
As to `C#CCN(C)c1nc(N)c2ccccc2n1` [I-6a, N2-methyl-N2-(prop-2-yn-1-yl)quinazoline-2,4-diamine], the inhibition at 1 µM worked out at 5%. Same read-out and setting: as for `C#CCN(C)c1nc(NC)c2ccccc2n1` [I-6b, N2,N4-dimethyl-N2-(prop-2-yn-1-yl)quinazoline-2,4-diamine], the figure is 5%; as for `C#CCN(C)c1nc(NCC)c2ccccc2n1` [I-6c, N4-ethyl-N2-methyl-N2-(prop-2-yn-1-yl)quinazoline-2,4-diamine], 4%; as for `C#CCN(C)c1nc(NC(C)C)c2ccccc2n1` [I-6d, N2-methyl-N2-(prop-2-yn-1-yl)-N4-(propan-2-yl)quinazoline-2,4-diamine], 4%.

For `C#CCN(C)c1nc(NCCOC)c2ccccc2n1` [I-6f, N4-(2-methoxyethyl)-N2-methyl-N2-(prop-2-yn-1-yl)quinazoline-2,4-diamine], the inhibition at 1 µM is 5%.

Consider `C#CCN(C)c1nc(NC2CC2)c2ccccc2n1` [I-6g, N4-cyclopropyl-N2-methyl-N2-(prop-2-yn-1-yl)quinazoline-2,4-diamine], for which the inhibition at 1 µM is 4%. On the same count and under the same terms, as for `C#CCN(C)c1nc(N)c2ccc(Cl)cc2n1` [II-6a, 7-chloro-N2-methyl-N2-(prop-2-yn-1-yl)quinazoline-2,4-diamine], the figure is 7%; as for `C#CCN(C)c1nc(NC)c2ccc(Cl)cc2n1` [II-6b, 7-chloro-N2,N4-dimethyl-N2-(prop-2-yn-1-yl)quinazoline-2,4-diamine], 15%. Still for that read-out and setting: to `C#CCN(C)c1nc(NCC)c2ccc(Cl)cc2n1` [II-6c, 7-chloro-N4-ethyl-N2-methyl-N2-(prop-2-yn-1-yl)quinazoline-2,4-diamine] belongs 4%. Still for that read-out and setting: as for `C#CCN(C)c1nc(NC(C)C)c2ccc(Cl)cc2n1` [II-6d, 7-chloro-N2-methyl-N2-(prop-2-yn-1-yl)-N4-(propan-2-yl)quinazoline-2,4-diamine], the figure is 1%; as for `C#CCN(C)c1nc(NCCOC)c2ccc(Cl)cc2n1` [II-6f, 7-chloro-N4-(2-methoxyethyl)-N2-methyl-N2-(prop-2-yn-1-yl)quinazoline-2,4-diamine], 9%.

`C#CCN(C)c1nc(NC2CC2)c2ccc(Cl)cc2n1` [II-6g, 7-chloro-N4-cyclopropyl-N2-methyl-N2-(prop-2-yn-1-yl)quinazoline-2,4-diamine]: the inhibition at 1 µM worked out at 4%. Regarding `C#CCN(C)c1nc(NC)c2cc(OC)ccc2n1` [III-6b, 6-methoxy-N2,N4-dimethyl-N2-(prop-2-yn-1-yl)quinazoline-2,4-diamine], the inhibition at 1 µM is 4%. On the same count and under the same terms, as for `C#CCN(C)c1nc(NCC)c2cc(OC)ccc2n1` [III-6c, N4-ethyl-6-methoxy-N2-methyl-N2-(prop-2-yn-1-yl)quinazoline-2,4-diamine], the figure is 7%; as for `C#CCN(C)c1nc(NC(C)C)c2cc(OC)ccc2n1` [III-6d, 6-methoxy-N2-methyl-N2-(prop-2-yn-1-yl)-N4-(propan-2-yl)quinazoline-2,4-diamine], 2%.

`C#CCN(C)c1nc(NCCCC)c2cc(OC)ccc2n1` [III-6e, N4-butyl-6-methoxy-N2-methyl-N2-(prop-2-yn-1-yl)quinazoline-2,4-diamine]: the inhibition at 1 µM is 8%.

Consider `C#CCN(C)c1nc(NCCOC)c2cc(OC)ccc2n1` [III-6f, 6-methoxy-N4-(2-methoxyethyl)-N2-methyl-N2-(prop-2-yn-1-yl)quinazoline-2,4-diamine], for which the inhibition at 1 µM turned out to be 6%. On the same count and under the same terms, as for `C#CCN(C)c1nc(NC2CC2)c2cc(OC)ccc2n1` [III-6g, N4-cyclopropyl-6-methoxy-N2-methyl-N2-(prop-2-yn-1-yl)quinazoline-2,4-diamine], the figure is 5%.

`C#CCN(C)c1nc(NC2CCCCC2)c2cc(OC)ccc2n1` [III-6h, N4-cyclohexyl-6-methoxy-N2-methyl-N2-(prop-2-yn-1-yl)quinazoline-2,4-diamine]: the inhibition at 1 µM was 3%.
